Data: ChEMBL document CHEMBL6083179, “Glucagon-like peptide-1 analogs: Miracle drugs are blooming?” (Eur J Med Chem, 2024)
Blank lines part the entries; values can stand above or below the molecule they belong to.

How the values were obtained:
[1] = biological target: T1, Glucagon-1 (Xenopus laevis, UniProt O42143); experiment: Inhibition of Xenopus laevis GLP-1A (1 to 37 residues)
T1 sequence (O42143 whole entry): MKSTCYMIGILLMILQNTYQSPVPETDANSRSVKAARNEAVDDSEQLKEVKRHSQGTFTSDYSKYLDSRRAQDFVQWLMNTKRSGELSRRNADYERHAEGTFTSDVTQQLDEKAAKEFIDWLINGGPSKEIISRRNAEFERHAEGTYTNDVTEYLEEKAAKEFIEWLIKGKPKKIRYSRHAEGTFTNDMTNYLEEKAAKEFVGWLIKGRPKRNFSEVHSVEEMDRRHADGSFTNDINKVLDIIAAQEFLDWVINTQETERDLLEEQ

[2] = biological target: T1, Glucagon-1; experiment: Inhibition of Xenopus laevis GLP-1B (1 to 32 residues)
[3] = biological target: T1, Glucagon-1; experiment: Inhibition of Xenopus laevis GLP-1C (1 to 30 residues)
[4] = Inhibition of Ornithorhynchus anatinus GLP-1

IC50 [1]: 12.7 nM
Molecule: CC[C@H](C)[C@H](NC(=O)[C@H](CC(C)C)NC(=O)[C@H](Cc1c[nH]c2ccccc12)NC(=O)[C@H](CC(=O)O)NC(=O)[C@@H](NC(=O)[C@H](Cc1ccccc1)NC(=O)[C@H](CCC(=O)O)NC(=O)[C@H](CCCCN)NC(=O)[C@H](C)NC(=O)[C@H](C)NC(=O)[C@H](CCCCN)NC(=O)[C@H](CCC(=O)O)NC(=O)[C@H](CC(=O)O)NC(=O)[C@H](CC(C)C)NC(=O)[C@H](CCC(N)=O)NC(=O)[C@H](CCC(N)=O)NC(=O)[C@@H](NC(=O)[C@@H](NC(=O)[C@H](CC(=O)O)NC(=O)[C@H](CO)NC(=O)[C@@H](NC(=O)[C@H](Cc1ccccc1)NC(=O)[C@@H](NC(=O)CNC(=O)[C@H](CCC(=O)O)NC(=O)[C@H](C)NC(=O)[C@@H](N)Cc1c[nH]cn1)[C@@H](C)O)[C@@H](C)O)C(C)C)[C@@H](C)O)[C@@H](C)CC)C(=O)N[C@@H](CC(N)=O)C(=O)NCC(=O)NCC(=O)N1CCC[C@H]1C(=O)N[C@@H](CO)C(=O)N[C@@H](CCCCN)C(=O)N[C@@H](CCC(=O)O)C(=O)N[C@H](C(=O)N[C@H](C(=O)N[C@@H](CO)C(=O)O)[C@@H](C)CC)[C@@H](C)CC

IC50 [2]: 2.9 nM
Molecule: CC[C@H](C)[C@H](NC(=O)[C@H](CC(C)C)NC(=O)[C@H](Cc1c[nH]c2ccccc12)NC(=O)[C@H](CCC(=O)O)NC(=O)[C@@H](NC(=O)[C@H](Cc1ccccc1)NC(=O)[C@H](CCC(=O)O)NC(=O)[C@H](CCCCN)NC(=O)[C@H](C)NC(=O)[C@H](C)NC(=O)[C@H](CCCCN)NC(=O)[C@H](CCC(=O)O)NC(=O)[C@H](CCC(=O)O)NC(=O)[C@H](CC(C)C)NC(=O)[C@H](Cc1ccc(O)cc1)NC(=O)[C@H](CCC(=O)O)NC(=O)[C@@H](NC(=O)[C@@H](NC(=O)[C@H](CC(=O)O)NC(=O)[C@H](CC(N)=O)NC(=O)[C@@H](NC(=O)[C@H](Cc1ccc(O)cc1)NC(=O)[C@@H](NC(=O)CNC(=O)[C@H](CCC(=O)O)NC(=O)[C@H](C)NC(=O)[C@@H](N)Cc1c[nH]cn1)[C@@H](C)O)[C@@H](C)O)C(C)C)[C@@H](C)O)[C@@H](C)CC)C(=O)N[C@@H](CCCCN)C(=O)NCC(=O)N[C@@H](CCCCN)C(=O)N1CCC[C@H]1C(=O)N[C@@H](CCCCN)C(=O)O

IC50 [3]: 43.4 nM
Molecule: H-HAEGTFTNDMTNYLEEKAAKEFVGWLIKGRPK-OH

IC50 [4]: 7.4 nM
Molecule: H-HFDGVYTDYFSRYLEEKATNEFIDWLLKGQE-OH

IC50 [4]: 7.4 nM
Molecule: H-HSEGTFTNDVTRLLEEKATSEFIAWLLKGLE-OH
